Earlier results, collected in patent publication US9493497B2, “Carbamate glycolipid and use thereof” (RIKEN, priority 2012, dated 2016).
Blank lines part the entries; values can stand above or below the compound they belong to.

Assays:
[1] = not given; remark: listed apart in the source

SMILES: CCCCCCCCCCCCCCCCCCCCCCCCCC(=O)N[C@@H](CO[C@H]1OC(CO)[C@H](O)C(O)C1O)[C@H](O)[C@H](O)CCCCCCCCCCCCCC (stereo partly shown) [KRN7000]
anti-tumor activity (tumor): extremely strong anti-tumor activity

solubility in DMSO: improved solubility in DMSO
SMILES: CCCCCCCC/C=C\CCCCCCCCCCCCCC(=O)N[C@@H](CO[C@H]1OC(CNC(C)=O)[C@H](O)[C@H](O)C1O)[C@H](O)[C@H](O)CCCCCCCCCCCCCC (stereo partly shown) [PBS-57]

SMILES: CCCCCCCCCCCCCCCCCCCCCCCCCC(=O)N[C@@H](CO[C@H]1CC(CO)[C@H](O)[C@H](O)C1O)[C@H](O)[C@H](O)CCCCCCCCCCCCCC (stereo partly shown) [RCAI-56]
NKT cell activation / IFN-γ production induction (NKT cells): strongly activates NKT cells and induces production of a large amount of IFN-γ

solubility in water [1]: low solubility in water
SMILES: CCCCCCCCCCCCCCCCCCCCCCCCCC(=O)N[C@@H](CO[C@H]1O[C@H](COC)[C@H](O)[C@H](O)[C@H]1O)[C@H](O)[C@H](O)CCCCCCCCCCCCCC [RCAI-61]
NKT cell activation / IFN-γ production induction (NKT cells): induces production of IFN-γ in large amounts

SMILES: CCCCCCCCCCCCCCCCCCCCCCCCCC(=O)N[C@@H](CC[C@H]1OC(CO)[C@H](O)C(O)C1O)[C@H](O)[C@H](O)CCCCCCCCCCCCCC (stereo partly drawn) [α-C-GalCer]
cytokine production in human NKT cells (human NKT cells): scarcely induces cytokine production
activation of NKT cells of mouse (NKT cells of mouse): strongly activates NKT cells of mouse and preferentially produces IFN-γ
